Results as given in patent US9592217B2, “Method for treating skin inflammatory diseases” (Olatec Therapeutics LLC, priority 2012, dated 2017).
Read-outs that look alike come from different tables or passages of the source.

Columns and labels:
Type in all cases: in vivo
[1] = system: arachidonic acid induced ear swelling; test: Topical arachidonic acid induced ear swelling model in mice; conditions: 30 min before and 15 min after arachidonic acid, measured at 90 minutes
Method: Purified 3-methanesulfonylpropionitrile was dissolved in vehicle (ethanol/acetone 1:1) to 5% (w/v). The active compound, indomethacin (positive control in vehicle), and vehicle were topically applied to mice and evaluated for anti-inflammatory activity in the topical arachidonic acid induced ear swelling model in mice, which is a model of irritant contact dermatitis.
Male ICR mice weighing 22±2 g were used and randomly divided; each group had 10 mice. Arachidonic Acid (0.5 mg in 20 μl of acetone:ethanol/1:1) was applied topically to the anterior and posterior surfaces of the right ear of each mice. Test substance and vehicle, as listed in Table 3 were similarly applied 30 min before and 15 min after arachidonic acid application. The thickness of the right ear and the left ear was measured and the difference calculated as an indication of the inflammation in the right ear. Ear swelling was measured by a Dyer model micrometer gauge at 60 and 90 minutes after arachidonic acid application as an index of inflammation. Percent inhibition was calculated according to the formula: Ic−It/Ic×100, where Ic and It refers to increase of ear thickness (mm) in control and treated mice, respectively. ANOVA and Dunnett's test were employed to ascertain significant difference between vehicle control and treated groups. Significance is set at P<0.05 level.

[2] = Systemic (plasma) exposure after oral and subcutaneous administration to rats
Method: This study was done to determine the systemic (plasma) exposure of MSPN after administration by the oral and subcutaneous routes to rats.
MSPN substance was prepared in water for oral administration and in saline for subcutaneous administration. Rats weighed 282 to 295 g were used in the study. Male rats (n=2) were given a single dose at 50, 160 or 500 mg/kg by both oral and subcutaneous routes. Female rats (n=2) were dosed only at 500 mg/kg by both oral and subcutaneous routes. The blood was drawn from each rat at 0.25, 1, 2, 3, 4, 6, 12, 24, and 48 hours and measured for MSPN concentration by LC/MS/MS.

[3] = system: rats; test: Oral systemic toxicity in rats
[4] = system: dogs; test: Oral systemic toxicity in dogs
[5] = decreased body temperature, decreased respiratory rate, increased blood pressure, increased heart rate

Row | Structure (SMILES) | % Inhibition of ear swelling ([1]; (0.5% w/v), 0.1 mg/20 μL) [%] | % Inhibition of ear swelling ([1]; 375 mM (5% w/v), 1 mg/20 μL) [%] | Cmax ([2]; rat, plasma, 500 mg/kg, heading: average maximum plasma concentration, male rats, oral, single dose 500 mg/kg, read-out: average maximum plasma concentration (Cmax)) [µg/mL] | Cmax ([2]; rat, plasma, sc, 500 mg/kg, heading: average Cmax, female rats, subcutaneous, single dose 500 mg/kg, read-out: average Cmax) [µg/mL] | Cmax ([2]; rat, plasma, sc, male rats, subcutaneous, single dose 50 mg/kg, read-out: average maximum plasma concentration (Cmax)) [µg/mL] | Cmax ([2]; rat, plasma, sc, male rats, subcutaneous, single dose 160 mg/kg, read-out: average maximum plasma concentration (Cmax)) [µg/mL] | Cmax ([2]; rat, plasma, sc, male rats, subcutaneous, single dose 500 mg/kg, read-out: average maximum plasma concentration (Cmax)) [µg/mL] | Cmax ([2]; rat, plasma, female rats, oral, single dose 500 mg/kg, read-out: average Cmax) [µg/mL] | Cmax ([2]; rat, plasma, male rats, oral, single dose 50 mg/kg, read-out: average maximum plasma concentration (Cmax)) [µg/mL] | Cmax ([2]; rat, plasma, male rats, oral, single dose 160 mg/kg, read-out: average maximum plasma concentration (Cmax)) [µg/mL] | half-life ([2]; rat, plasma, rats, both routes (oral, subcutaneous) and both sexes, read-out: Half-lives) [h] | bioavailability ([2]; rats, after both the oral and subcutaneous routes) | doses at which effects were seen, relative to expected human therapeutic doses [3] | effects seen after oral, systemic toxicity administration [3, 5] | doses at which effects were seen, relative to expected human therapeutic doses [4] | effects seen after oral, systemic toxicity administration [4, 5]
1 | COc1ccc2c(c1)c(CC(=O)O)c(C)n2C(=O)c1ccc(Cl)cc1 [Indomethacin, indomethacin, reference compound] | 53 |  |  |  |  |  |  |  |  |  |  |  |  |  |  | 
2 | CS(=O)(=O)CCC#N [MSPN, 3-methanesulfonylpropionitrile] |  | 36 | 12 | 9.5 | 160 | 760 | 3300 | 3800 | 160 | 560 | 8 to 15 | significant bioavailability | over 2000 fold | mild physiological effects | over 2000 fold | mild physiological effects
